Here are results for two molecules from patent US7785577B2, “Peptides or peptidic conjugate derivatives of MSH and the use thereof for cosmetically fighting against canities” (Institut Europeen de Biologie Cellulaiare, priority 2004, dated 2010).

pEC50: −log10 of the molar value. Non-standard residues stand in square brackets, D forms with d. Residues, ends and D or L forms follow the SMILES beside them. *: point of attachment. Palmitoyl = CCCCCCCCCCCCCCCC(=O)*; Nle = CCCC[C@H](N)C(=O)O

For the experiment, the target named is T1, melanocortin-1 receptor MClr (Homo sapiens, UniProt Q01726).
T1 construct: The cells used to test MClr were human melanocytes; endogenous in cells; host or cells: human melanocytes
T1 sequence (Q01726 whole entry): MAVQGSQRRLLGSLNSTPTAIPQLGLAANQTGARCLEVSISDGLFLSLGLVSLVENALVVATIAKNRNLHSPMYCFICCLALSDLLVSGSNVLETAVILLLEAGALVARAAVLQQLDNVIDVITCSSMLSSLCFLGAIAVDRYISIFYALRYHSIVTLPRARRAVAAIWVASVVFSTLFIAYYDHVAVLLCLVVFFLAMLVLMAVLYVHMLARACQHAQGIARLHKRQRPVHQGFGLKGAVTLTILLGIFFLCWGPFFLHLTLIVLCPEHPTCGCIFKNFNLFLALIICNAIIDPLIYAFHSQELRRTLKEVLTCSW
In words: Melanogenesis stimulation test: quantification of second messenger cAMP. In kind it is cell-based. The source says:
Test: Study of the quantification of a second messenger: cAMP
When an agonist binds to this receptor, it leads to activation of a molecule, adenylate cyclase, which produces cAMP. Quantifying cAMP makes it possible to evaluate the affinity of a ligand for its receptor.
Protocol: The cells used to test MClr were human melanocytes.
EC50 is the ligand concentration giving 50% of maximum stimulation.

The term pEC50 denotes the EC50 on a negative log10 scale, so that one unit is a factor of ten. Higher therefore signals a small EC50. For `CCCC[C@H](NC(C)=O)C(=O)N[C@@H](C)C(=O)N[C@@H](CCCNC(=N)N)C(=O)N[C@H](Cc1ccccc1)C(=O)N[C@@H](CCCNC(=N)N)C(=O)N[C@@H](Cc1c[nH]c2ccccc12)C(N)=O` [Conjugate no. 2, Ac-Nle-Ala-Arg-DPhe-Arg-Trp-NH2] (Ac-[Nle]AR[dF]RW-NH2), the pEC50 is 9.22.

Consider `CCCCCCCCCCCCCCCC(=O)N[C@@H](CCCC)C(=O)N[C@@H](C)C(=O)N[C@@H](Cc1c[nH]cn1)C(=O)N[C@H](Cc1ccccc1)C(=O)N[C@@H](CCCNC(=N)N)C(=O)N[C@@H](Cc1c[nH]c2ccccc12)C(N)=O` [Conjugate no. 13, Palm-Nle-Ala-His-DPhe-Arg-Trp-NH2] (Palmitoyl-[Nle]AH[dF]RW-NH2), for which the pEC50 is 8.80.
